Values joined by “and” are separate entries in the source; they are usually repeats but may differ in a detail not shown here. Equal entries are not always repeated. ± gives the expanded uncertainty stated by the source.
Experiment: mn = molality of the nth substance listed, in mol/kg
Settings: 101 kPa, Liquid, Pycnometric method

CN(C)C(=N)NC(=N)N.Cl [N,N-dimethylimidodicarbonimidic diamide hydrochloride] + O
Settings	mass density
288.15 K, m1 = 0.0309	1000.34 ± 0.36 kg/m3
288.15 K, m1 = 0.0416	1000.77 ± 0.36 kg/m3
288.15 K, m1 = 0.0506	1001.17 ± 0.36 kg/m3
288.15 K, m1 = 0.0608	1001.55 ± 0.36 kg/m3
288.15 K, m1 = 0.0712	1001.9 ± 0.36 kg/m3
288.15 K, m1 = 0.0815	1002.31 ± 0.36 kg/m3
288.15 K, m1 = 0.0922	1002.71 ± 0.36 kg/m3
288.15 K, m1 = 0.1028	1003.21 ± 0.36 kg/m3
288.15 K, m1 = 0.1138	1003.39 ± 0.36 kg/m3
288.15 K, m1 = 0.1207	1003.71 ± 0.36 kg/m3
288.15 K, m1 = 0.1527	1004.89 ± 0.36 kg/m3
298.15 K, m1 = 0.029	998.2 ± 0.37 kg/m3
298.15 K, m1 = 0.0415	998.7 ± 0.38 kg/m3
298.15 K, m1 = 0.0508	999.07 ± 0.38 kg/m3
298.15 K, m1 = 0.0592	999.42 ± 0.38 kg/m3
298.15 K, m1 = 0.0725	999.91 ± 0.38 kg/m3
298.15 K, m1 = 0.0769	1000.1 ± 0.38 kg/m3
298.15 K, m1 = 0.0904	1000.51 ± 0.37 kg/m3
298.15 K, m1 = 0.1072	1001.13 ± 0.38 kg/m3
298.15 K, m1 = 0.1191	1001.63 ± 0.37 kg/m3 and 1001.57 ± 0.37 kg/m3
298.15 K, m1 = 0.1303	1002 ± 0.38 kg/m3
308.15 K, m1 = 0.0306	995.14 ± 0.42 kg/m3
308.15 K, m1 = 0.0404	995.53 ± 0.42 kg/m3
308.15 K, m1 = 0.0514	995.89 ± 0.42 kg/m3
308.15 K, m1 = 0.058	996.2 ± 0.42 kg/m3
308.15 K, m1 = 0.0704	996.6 ± 0.42 kg/m3
308.15 K, m1 = 0.0811	996.95 ± 0.42 kg/m3
308.15 K, m1 = 0.0915	997.53 ± 0.42 kg/m3
308.15 K, m1 = 0.1014	997.74 ± 0.42 kg/m3
308.15 K, m1 = 0.1218	998.62 ± 0.42 kg/m3
308.15 K, m1 = 0.152	999.56 ± 0.42 kg/m3

CNC(=C[N+](=O)[O-])NCCSCc1ccc(CN(C)C)o1.Cl [ranitidine hydrochloride] + O
Settings	mass density [kg/m3]
288.15 K, m1 = 0.0202	1000.92 ± 0.37
288.15 K, m1 = 0.0306	1001.78 ± 0.37
288.15 K, m1 = 0.0407	1002.69 ± 0.37
288.15 K, m1 = 0.0488	1003.32 ± 0.37
288.15 K, m1 = 0.0602	1004.33 ± 0.37
288.15 K, m1 = 0.0702	1005.27 ± 0.37
288.15 K, m1 = 0.0813	1006.23 ± 0.38
288.15 K, m1 = 0.092	1007.13 ± 0.38
288.15 K, m1 = 0.1019	1007.93 ± 0.38
288.15 K, m1 = 0.1149	1009.12 ± 0.38
288.15 K, m1 = 0.1521	1012.15 ± 0.38
298.15 K, m1 = 0.0103	997.99 ± 0.38
298.15 K, m1 = 0.0198	998.81 ± 0.38
298.15 K, m1 = 0.0295	999.58 ± 0.38
298.15 K, m1 = 0.0501	1001.38 ± 0.38
298.15 K, m1 = 0.0603	1002.17 ± 0.39
298.15 K, m1 = 0.0697	1002.94 ± 0.39
298.15 K, m1 = 0.0789	1003.7 ± 0.39
298.15 K, m1 = 0.0907	1004.69 ± 0.39
298.15 K, m1 = 0.0994	1005.38 ± 0.39
298.15 K, m1 = 0.1171	1006.83 ± 0.4
298.15 K, m1 = 0.1475	1009.32 ± 0.4
308.15 K, m1 = 0.0109	994.91 ± 0.42
308.15 K, m1 = 0.0191	995.59 ± 0.43
308.15 K, m1 = 0.0313	996.62 ± 0.43
308.15 K, m1 = 0.0428	997.58 ± 0.43
308.15 K, m1 = 0.0507	998.2 ± 0.43
308.15 K, m1 = 0.059	998.85 ± 0.43
308.15 K, m1 = 0.0695	999.78 ± 0.43
308.15 K, m1 = 0.0876	1001.15 ± 0.43
308.15 K, m1 = 0.0986	1002.15 ± 0.43
308.15 K, m1 = 0.119	1003.69 ± 0.43
308.15 K, m1 = 0.1483	1006.01 ± 0.44

COc1cccc([C@@]2(O)CCCC[C@@H]2CN(C)C)c1.Cl [tramadol hydrochloride] + O
Settings	mass density [kg/m3]
288.15 K, m1 = 0.0138	999.75 ± 0.36
288.15 K, m1 = 0.026	1000.36 ± 0.36
288.15 K, m1 = 0.0298	1000.53 ± 0.36
288.15 K, m1 = 0.04	1001.04 ± 0.36
288.15 K, m1 = 0.0536	1001.72 ± 0.37
288.15 K, m1 = 0.0604	1002.03 ± 0.36
288.15 K, m1 = 0.0702	1002.51 ± 0.36
288.15 K, m1 = 0.0805	1002.96 ± 0.36
288.15 K, m1 = 0.0903	1003.44 ± 0.37
288.15 K, m1 = 0.099	1003.81 ± 0.37
288.15 K, m1 = 0.1207	1004.82 ± 0.37
288.15 K, m1 = 0.1511	1006.21 ± 0.37
298.15 K, m1 = 0.0114	997.56 ± 0.37
298.15 K, m1 = 0.0211	998.02 ± 0.38
298.15 K, m1 = 0.0296	998.42 ± 0.38
298.15 K, m1 = 0.0403	998.93 ± 0.38
298.15 K, m1 = 0.0501	999.29 ± 0.38
298.15 K, m1 = 0.0607	999.82 ± 0.38
298.15 K, m1 = 0.0804	1000.74 ± 0.38
298.15 K, m1 = 0.0923	1001.23 ± 0.38
298.15 K, m1 = 0.1016	1001.66 ± 0.38
298.15 K, m1 = 0.1183	1002.31 ± 0.38
298.15 K, m1 = 0.149	1003.78 ± 0.38
308.15 K, m1 = 0.0117	994.5 ± 0.42
308.15 K, m1 = 0.0195	994.81 ± 0.42
308.15 K, m1 = 0.0299	995.32 ± 0.42
308.15 K, m1 = 0.0399	995.75 ± 0.42
308.15 K, m1 = 0.0493	996.19 ± 0.42
308.15 K, m1 = 0.06	996.6 ± 0.42
308.15 K, m1 = 0.0717	997.13 ± 0.42
308.15 K, m1 = 0.082	997.64 ± 0.42
308.15 K, m1 = 0.0912	997.99 ± 0.42
308.15 K, m1 = 0.1	998.39 ± 0.42
308.15 K, m1 = 0.1181	999.15 ± 0.42
308.15 K, m1 = 0.1501	1000.52 ± 0.43

Reference: the NIST ThermoML archive (doi:10.1016/j.jct.2011.12.022)
